# Measured values as given in patent US9133143B2, “(3-fluoro-2-hydroxy)propyl-functionalized aryl derivatives or pharmaceutically acceptable salts thereof, method for preparing same, and pharmaceutical composition containing same as active ingredient for the diagnosis or treatment of neurodegenerative brain diseases” (FUTURECHEM CO., LTD., priority 2009, dated 2015).
# What was measured:
# [1] = Test of in vivo distribution of F-18-labeled compounds (concentration in brain, passage through blood-brain barrier); set-up: Concentration in brain of rats, At 2 minutes ([2 min]) / Concentration in brain of rats, At 30 minutes ([30 min]): unit not given here; conditions: SD rats; for Initial brain inflow: at 2 minutes; for [2 min]/[30 min] / [peak]/[30 min]: ratio of brain concentrations; for [2 min]/[30 min]: value smaller than 1 = cannot pass the blood-brain barrier well; for Concentration in brain of rats, Highest ([peak]) / Time of highest concentration in brain (in parentheses): F-18-labeled compound
# Experimental: In order to test the passing of the aryl derivative with the (3-fluoro-2-hydroxy)propyl group according to the present disclosure through the blood-brain barrier, the following experiment was carried out.
# After administering the F-18-labeled aryl derivatives prepared in Examples 10 to 13 or 2-(4-(N-monomethyl)aminophenyl)-6-(3-[^18F]fluoropropoxy)benzothiophene with no hydroxyl group, as control, to SD rats, peak concentration in the brain and concentrations at 2 minutes ([2 min]) and 30 minutes ([30 min]) were measured and pharmacokinetic properties were quantitatively compared.
# A larger value indicates easier passage through the blood-brain barrier.
# [2] = molecular target: T1, β-Amyloid (Aβ1-42) fibrils (Homo sapiens, UniProt P05067); test: Test of inhibitory binding ability against [125I]TZDM on β-amyloid fibrils; conditions: Aβ1-42 fibrils 10 nM, [125I]TZDM 0.05 nM, room temperature 3 hours; read-out: Ki, binding affinity (Ki) for [125I]TZDM (48)
# T1 construct: β-Amyloid peptide (Aβ1-42, Bachem, 1 mg); purchased Bachem
# T1 sequence (P05067 672-713 limits assumed): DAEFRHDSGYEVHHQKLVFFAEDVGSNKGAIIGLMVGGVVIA
# Experimental: β-Amyloid peptide (Aβ1-42, Bachem, 1 mg) was completely dissolved in DMSO (1 mL) and then mixed well after adding phosphate buffer (pH 7.4, 9 mL). β-Amyloid fibrils produced by incubating at 37° C. for 60 minutes were distributed into e-tubes, 0.5 mL each, and stored in a refrigerator at −80° C.
# 10% ethanol (0.850 mL) was placed in a 12 mm×75 mm borosilicate test tube. […] Then, after adding [^125I]TZDM (48) (50 μL, final reaction concentration=0.05 nM), the resulting mixture was subjected to incubation at room temperature for 3 hours. 3 Hours later, after separating [^125I]TZDM (48) bound to the β-amyloid (Aβ1-42) fibrils from unbound [^125I]TZDM (48) using a cell harvester, gamma radiation was measured using a gamma counter. 2 μM ThT was used for testing of non-specific binding.
Compound,"Concentration in brain of rats, At 2 minutes ([2 min]) [1]","Concentration in brain of rats, At 30 minutes ([30 min]) [1]","Concentration in brain of rats, Highest ([peak]) [1]",Time of highest concentration in brain (in parentheses) [1],[peak]/[30 min] [1],Ki [2],other results
"CNc1ccc(-c2cc3ccc(OCCC[18F])cc3s2)cc1 [Control, 2-(4-(N-monomethyl)aminophenyl)-6-(3-[^18F]fluoropropoxy)benzothiophene, reference compound]",2.02,2.18,,,,,Initial brain inflow [1]: very low; [2 min]/[30 min] [1]: 0.93; [2 min]/[30 min] ([1]; listed as 2-[4-(N-monomethyl)aminophenyl]-6-β-[^18F]fluoropropoxy)benzothiophene): less than or equal to 1
"CNc1cccc(-c2nc3ccc(OCC(O)C[18F])cc3s2)c1 (racemic) [Example 12, 2-[3-(N-monomethyl)aminophenyl]-6-[(R/S)-3-[^18F]fluoro-2-hydroxypropoxy]benzothiazole]",15.7,2.9,22.6,25 s,7.7,,
"CNc1ccc(-c2nc3ccc(OC[C@H](O)CF)cc3s2)cn1 [Example 8, 2-[2-(N-monomethyl)aminopyridin-5-yl]-6-[(S)-3-fluoro-2-hydroxypropoxy]benzothiazole]",,,,,,160 pM,
"CNc1ccc(-c2cc3ccc(OCC(O)CF)cc3s2)cc1 (racemic) [Example 1, 2-[4-(N-monomethyl)aminophenyl]-6-[(R/S)-3-fluoro-2-hydroxypropoxy]benzothiophene]",,,,,,1200 pM,
"CNc1ccc(-c2cc3ccc(OCC(O)CF)cc3s2)cn1 (racemic) [Example 2, 2-[2-(N-monomethyl)aminopyridin-5-yl]-6-[(R/S)-3-fluoro-2-hydroxypropoxy]benzothiophene]",,,,,,490 pM,
"CNc1ccc(-c2cc3ccc(OCC(O)CF)cc3s2)nn1 (racemic) [Example 5, 2-[3-(N-monomethyl)aminopyridazin-6-yl]-6-[(R/S)-3-fluoro-2-hydroxypropoxy]benzothiophene]",,,,,,420 pM,
"CNc1ccc(-c2nc3ccc(OCC(O)C[18F])cc3s2)cn1 (racemic) [Example 13, 2-[2-(N-monomethyl)aminopyridin-5-yl]-6-[(R/S)-3-[^18F]fluoro-2-hydroxypropoxy]benzothiazole]",6.5,1.0,11.1,45 s,10.8,,
"CNc1ccc(-c2cc3ccc(OCC(O)C[18F])cc3s2)cn1 (racemic) [Example 10, 2-[2-(N-monomethyl)aminopyridin-5-yl]-6-[(R/S)-3-[^18F]fluoro-2-hydroxypropoxy]benzothiophene]",16.5,2.2,22.4,30 s,10.3,,[2 min]/[30 min] value relative to that of the compound with no hydroxyl group at the propyl residue [1]: 8.1 times; Initial brain inflow [1]: very rapid; [2 min]/[30 min] [1]: 7.5
"CNc1ccc(-c2nc3ccc(OCC(O)CF)cc3s2)cc1 (racemic) [Example 6, 2-[4-(N-monomethyl)aminophenyl]-6-[(R/S)-3-fluoro-2-hydroxypropoxy]benzothiazole]",,,,,,1060 pM,
